Melting point data for 1 compound are collected here from patent US11883379B1, “9-flouro-dibenzo[B,G]indeno[1′, 2′:3,4]fluoreno-[1,2-D]oxonine-5, 11, 16,21-tetraone as an antimicrobial agent” (KING FAISAL UNIVERSITY, priority 2023, dated 2024).

For `O=C1Oc2ccc(F)cc2-c2c(c3c4ccccc4c(=O)c3c3c2c(=O)c2ccccc23)C(=O)c2ccccc21` [9-fluoro-dibenzo[b,g]indeno[1′,2′:3,4]fluoreno-[1,2-d]oxonine-5,11,16,21-tetraone], the melting point is 288 to 289 °C.
